Data on five molecules can be found in doi:10.1101/2023.03.24.534094v2 (biorxiv, 2023).

Read-outs that look alike come from different tables or passages of the source.

Some targets named below: HIPK2 (Homo sapiens, UniProt Q9H2X6); FGFR1 (Homo sapiens, UniProt P11362); CLK3 (Homo sapiens, UniProt P49761).
What all share (test): biochemical
The target of a further experiment is T1, EphB3 (Homo sapiens, UniProt P54753).
T1 sequence (P54753 1-998): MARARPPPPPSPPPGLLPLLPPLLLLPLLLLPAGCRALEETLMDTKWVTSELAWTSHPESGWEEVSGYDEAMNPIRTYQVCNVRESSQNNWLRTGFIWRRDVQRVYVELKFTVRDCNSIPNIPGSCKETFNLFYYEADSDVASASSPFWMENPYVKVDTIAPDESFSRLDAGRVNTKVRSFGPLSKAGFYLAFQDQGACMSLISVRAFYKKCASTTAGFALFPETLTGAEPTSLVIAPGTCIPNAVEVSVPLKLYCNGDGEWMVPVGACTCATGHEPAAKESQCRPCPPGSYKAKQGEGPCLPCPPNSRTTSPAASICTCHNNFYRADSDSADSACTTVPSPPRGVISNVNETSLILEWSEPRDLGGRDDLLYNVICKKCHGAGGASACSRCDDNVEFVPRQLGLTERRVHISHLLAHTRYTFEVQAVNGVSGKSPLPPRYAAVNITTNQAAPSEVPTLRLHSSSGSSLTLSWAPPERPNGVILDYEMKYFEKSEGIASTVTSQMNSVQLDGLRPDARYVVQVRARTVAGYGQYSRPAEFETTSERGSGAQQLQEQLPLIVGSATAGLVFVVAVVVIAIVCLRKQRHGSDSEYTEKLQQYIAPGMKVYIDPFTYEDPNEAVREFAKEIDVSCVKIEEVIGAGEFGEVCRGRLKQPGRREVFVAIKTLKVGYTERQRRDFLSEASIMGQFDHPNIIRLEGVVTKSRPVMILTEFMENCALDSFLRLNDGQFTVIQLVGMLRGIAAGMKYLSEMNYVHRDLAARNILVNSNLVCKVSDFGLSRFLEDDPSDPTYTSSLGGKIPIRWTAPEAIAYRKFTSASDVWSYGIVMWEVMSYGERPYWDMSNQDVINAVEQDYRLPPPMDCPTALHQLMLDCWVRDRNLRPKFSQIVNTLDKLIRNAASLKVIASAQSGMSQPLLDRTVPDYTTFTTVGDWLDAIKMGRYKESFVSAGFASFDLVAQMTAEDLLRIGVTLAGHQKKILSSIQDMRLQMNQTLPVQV

In a further experiment the target is T2, DCAMKL1 (Homo sapiens, UniProt O15075).
T2 sequence (O15075 1-740): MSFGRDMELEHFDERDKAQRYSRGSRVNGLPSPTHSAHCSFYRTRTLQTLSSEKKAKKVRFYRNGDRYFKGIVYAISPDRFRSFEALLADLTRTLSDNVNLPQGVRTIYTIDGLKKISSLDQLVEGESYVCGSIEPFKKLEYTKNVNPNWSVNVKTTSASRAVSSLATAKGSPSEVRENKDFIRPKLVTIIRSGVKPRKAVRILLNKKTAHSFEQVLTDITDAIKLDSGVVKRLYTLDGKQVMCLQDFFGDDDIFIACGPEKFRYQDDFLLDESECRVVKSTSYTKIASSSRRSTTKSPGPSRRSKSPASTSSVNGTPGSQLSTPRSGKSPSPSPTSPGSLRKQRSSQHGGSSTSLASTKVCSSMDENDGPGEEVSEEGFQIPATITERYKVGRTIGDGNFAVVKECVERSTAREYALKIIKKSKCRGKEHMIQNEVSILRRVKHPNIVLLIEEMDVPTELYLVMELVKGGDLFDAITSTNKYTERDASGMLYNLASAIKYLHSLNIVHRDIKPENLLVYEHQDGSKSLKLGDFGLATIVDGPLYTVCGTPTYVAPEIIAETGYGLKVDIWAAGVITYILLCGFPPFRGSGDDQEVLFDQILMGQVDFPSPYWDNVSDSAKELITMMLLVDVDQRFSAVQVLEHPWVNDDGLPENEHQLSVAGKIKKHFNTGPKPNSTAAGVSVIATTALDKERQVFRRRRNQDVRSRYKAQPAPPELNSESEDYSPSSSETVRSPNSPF

The next experiment deals with T3, VRK1 (Homo sapiens, UniProt Q99986).
T3 sequence (Q99986 1-396): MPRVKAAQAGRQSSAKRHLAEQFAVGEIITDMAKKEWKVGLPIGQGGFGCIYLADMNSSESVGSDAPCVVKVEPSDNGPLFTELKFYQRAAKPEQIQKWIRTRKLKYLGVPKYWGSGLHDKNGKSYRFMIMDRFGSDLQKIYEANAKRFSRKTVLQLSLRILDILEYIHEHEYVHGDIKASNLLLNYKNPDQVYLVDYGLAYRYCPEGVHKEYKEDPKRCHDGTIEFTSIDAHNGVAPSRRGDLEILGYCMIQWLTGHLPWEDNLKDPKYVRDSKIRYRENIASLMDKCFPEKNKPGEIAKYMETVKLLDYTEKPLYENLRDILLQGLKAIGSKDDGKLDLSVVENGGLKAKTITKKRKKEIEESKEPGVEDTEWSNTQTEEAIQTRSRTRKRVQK

Sequence of FGFR1 (P11362 whole entry): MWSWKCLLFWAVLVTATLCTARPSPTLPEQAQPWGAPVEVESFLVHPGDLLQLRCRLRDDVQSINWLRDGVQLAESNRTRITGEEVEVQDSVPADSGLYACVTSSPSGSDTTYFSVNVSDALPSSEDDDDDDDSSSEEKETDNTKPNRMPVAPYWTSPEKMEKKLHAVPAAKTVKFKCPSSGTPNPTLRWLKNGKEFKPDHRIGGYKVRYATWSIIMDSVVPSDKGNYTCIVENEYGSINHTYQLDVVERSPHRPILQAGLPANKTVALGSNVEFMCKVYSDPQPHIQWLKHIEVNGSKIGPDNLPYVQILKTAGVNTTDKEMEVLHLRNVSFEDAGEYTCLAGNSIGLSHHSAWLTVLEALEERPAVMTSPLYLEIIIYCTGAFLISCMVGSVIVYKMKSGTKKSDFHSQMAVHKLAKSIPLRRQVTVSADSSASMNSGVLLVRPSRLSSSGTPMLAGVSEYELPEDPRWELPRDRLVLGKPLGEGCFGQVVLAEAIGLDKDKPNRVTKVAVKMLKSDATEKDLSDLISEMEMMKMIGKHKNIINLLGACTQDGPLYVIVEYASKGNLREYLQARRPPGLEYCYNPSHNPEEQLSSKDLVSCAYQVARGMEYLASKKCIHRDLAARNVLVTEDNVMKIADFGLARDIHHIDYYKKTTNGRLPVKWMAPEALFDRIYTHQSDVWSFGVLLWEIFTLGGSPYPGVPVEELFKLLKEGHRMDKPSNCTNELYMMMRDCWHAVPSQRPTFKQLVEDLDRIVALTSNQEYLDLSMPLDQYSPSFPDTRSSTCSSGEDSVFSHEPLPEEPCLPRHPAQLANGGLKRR
Sequence of CLK3 (P49761 whole entry): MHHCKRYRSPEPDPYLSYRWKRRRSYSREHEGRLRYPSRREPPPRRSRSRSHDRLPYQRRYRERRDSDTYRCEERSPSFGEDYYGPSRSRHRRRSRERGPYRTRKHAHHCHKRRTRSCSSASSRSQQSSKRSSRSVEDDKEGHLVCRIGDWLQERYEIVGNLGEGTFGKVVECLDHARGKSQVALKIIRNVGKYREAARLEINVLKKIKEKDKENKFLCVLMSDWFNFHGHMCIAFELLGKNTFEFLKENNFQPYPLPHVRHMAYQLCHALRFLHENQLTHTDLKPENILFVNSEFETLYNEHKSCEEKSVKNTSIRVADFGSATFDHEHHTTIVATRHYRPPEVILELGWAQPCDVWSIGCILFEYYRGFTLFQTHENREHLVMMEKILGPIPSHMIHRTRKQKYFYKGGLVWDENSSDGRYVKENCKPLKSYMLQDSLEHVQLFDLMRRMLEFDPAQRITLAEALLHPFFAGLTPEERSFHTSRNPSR
Sequence of HIPK2 (Q9H2X6 whole entry): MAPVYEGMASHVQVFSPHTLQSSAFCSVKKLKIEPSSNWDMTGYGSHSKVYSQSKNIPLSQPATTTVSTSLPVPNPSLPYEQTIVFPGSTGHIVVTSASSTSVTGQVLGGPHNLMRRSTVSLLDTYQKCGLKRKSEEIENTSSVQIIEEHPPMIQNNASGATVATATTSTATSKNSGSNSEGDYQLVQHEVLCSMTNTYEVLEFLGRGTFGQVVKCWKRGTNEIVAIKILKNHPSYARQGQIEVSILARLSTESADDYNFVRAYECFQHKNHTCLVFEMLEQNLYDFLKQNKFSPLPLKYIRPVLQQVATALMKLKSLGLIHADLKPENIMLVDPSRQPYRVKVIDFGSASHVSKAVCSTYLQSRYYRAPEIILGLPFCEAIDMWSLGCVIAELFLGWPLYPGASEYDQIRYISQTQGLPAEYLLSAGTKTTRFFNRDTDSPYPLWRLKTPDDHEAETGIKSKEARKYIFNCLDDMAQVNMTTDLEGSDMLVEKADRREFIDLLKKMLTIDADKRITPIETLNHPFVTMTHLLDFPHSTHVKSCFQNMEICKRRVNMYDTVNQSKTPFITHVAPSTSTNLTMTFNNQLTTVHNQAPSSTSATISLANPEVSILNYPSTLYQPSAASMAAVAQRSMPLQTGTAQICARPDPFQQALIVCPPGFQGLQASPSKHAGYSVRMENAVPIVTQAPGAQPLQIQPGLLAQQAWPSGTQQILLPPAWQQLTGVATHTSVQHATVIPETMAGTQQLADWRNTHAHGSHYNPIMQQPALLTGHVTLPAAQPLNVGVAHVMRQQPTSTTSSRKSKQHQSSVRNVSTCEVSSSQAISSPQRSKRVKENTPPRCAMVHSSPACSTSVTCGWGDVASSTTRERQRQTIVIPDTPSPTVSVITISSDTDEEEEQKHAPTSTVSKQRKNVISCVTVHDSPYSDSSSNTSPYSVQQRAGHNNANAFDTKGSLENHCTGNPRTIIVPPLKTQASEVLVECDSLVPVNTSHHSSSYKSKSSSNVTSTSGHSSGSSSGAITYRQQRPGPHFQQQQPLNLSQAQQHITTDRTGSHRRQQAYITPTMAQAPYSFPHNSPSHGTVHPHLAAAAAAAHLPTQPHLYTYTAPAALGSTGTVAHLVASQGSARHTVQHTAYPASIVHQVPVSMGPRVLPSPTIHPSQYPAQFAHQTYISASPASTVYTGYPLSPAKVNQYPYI

As to `CNc1ncc2cc(-c3ccccc3Cl)c(=O)n(CCCCN)c2n1` [compound 4, 8-(4-Aminobutyl)-6-(2-chlorophenyl)-2-(methylamino)pyrido[2,3-d]pyrimidin-7(8H)-one], the ΔTm at 10 µM on HIPK2 (read-out: dTm MR21 (4)) was 0.1 °C; at FGFR1 (read-out: dTm MR21 (4)), 3.3 °C; on EphB3 (read-out: dTm MR21 (4)) it was 6 °C; on DCAMKL1 (read-out: dTm MR21 (4)) it was 0.2 °C; on VRK1 (read-out: dTm MR21 (4)) it was -0.4 °C; at CLK3 (read-out: dTm MR21 (4)), 0 °C.
Turning to `CNc1ncc2cc(-c3cc(Br)ccc3Cl)c(=O)n(CCCCN)c2n1` [compound 6, 8-(4-Aminobutyl)-6-(5-bromo-2-chlorophenyl)-2-(methylamino)pyrido[2,3-d]pyrimidin-7(8H)-one], the ΔTm at 10 µM is 0.2 °C on HIPK2 (read-out: dTm 6); 3 °C on FGFR1 (read-out: dTm 6); 3.5 °C on EphB3 (read-out: dTm 6); -0.5 °C on DCAMKL1 (read-out: dTm 6); 0.3 °C at VRK1 (read-out: dTm 6); -0.3 °C on CLK3 (read-out: dTm 6).
`CNc1ncc2cc(-c3ccc(-c4cccc(C)n4)cc3Cl)c(=O)n(CC3OCC(N)CO3)c2n1` (stereo not shown) [compound 2, G-5555]: the “dTm G-5555 (2)” value at FGFR1 (10 µM, binder) is -0.1 °C; on EphB3 (10 µM, binder), 1.7 °C; on DCAMKL1 (10 µM, binder), 0.3 °C; at VRK1 (10 µM, binder), -0.1 °C; on CLK3 (10 µM, binder) it was 0.1 °C.
For `CNc1ncc2cc(-c3cc(F)ccc3F)c(=O)n(CCCCN)c2n1` [compound 5, 8-(4-Aminobutyl)-6-(2,5-difluorophenyl)-2-(methylamino)pyrido[2,3-d]pyrimidin-7(8H)-one], the ΔTm at 10 µM at HIPK2 (read-out: dTm MR22 (5)) is 0.1 °C; on FGFR1 (read-out: dTm MR22 (5)), 3.4 °C; at EphB3 (read-out: dTm MR22 (5)) it was 3.3 °C; on VRK1 (read-out: dTm MR22 (5)), 0.4 °C; at CLK3 (read-out: dTm MR22 (5)), -0.4 °C.
For `CNc1ncc2cc(-c3cc(Br)ccc3Cl)c(=O)n(C[C@H]3OC[C@H](N)CO3)c2n1` [compound 7, 8-(((2r,5r)-5-Amino-1,3-dioxan-2-yl)methyl)-6-(5-bromo-2-chlorophenyl)-2-(methylamino)pyrido[2,3-d]pyrimidin-7(8H)-one], the ΔTm at 10 µM on HIPK2 (read-out: dTm 7) was 0.5 °C; at FGFR1 (read-out: dTm 7), 2.9 °C; at EphB3 (read-out: dTm 7) it was 2.5 °C; at DCAMKL1 (read-out: dTm 7) it was 1 °C; at VRK1 (read-out: dTm 7), 0.5 °C; on CLK3 (read-out: dTm 7), 0.5 °C.
